Measurements taken from US20230265151A1, “GIP/GLP1 CO-AGONIST COMPOUNDS” (priority 2020, published 2023).
Read-outs that look alike come from different tables or passages of the source. *1 amine or outer side, *2 acyl side, *3 side chain or, on linkers, in order; H or OH if unused. Where a SMILES comes first, the peptide text is derived from it. Side-chain parts run from the residue outwards. [ ]: non-standard residue; d: D form. The star is where a group is joined. γGlu = O=C(O)[C@H](CCC(=O)[*:2])N[*:1]; C14 diacid = O=C(O)CCCCCCCCCCCCC(=O)*; αMeY = C[C@](N)(Cc1ccc(O)cc1)C(=O)O; αMeF = C[C@](N)(Cc1ccccc1)C(=O)O; αMeL = CC(C)C[C@](C)(N)C(=O)O; Orn = NCCC[C@H](N)C(=O)O; AEEA = NCCOCCOCC(=O)O; Aib = CC(C)(N)C(=O)O

Columns and labels:
Type in all cases: cell-based
[1] = molecular target: T1, hGIPR (Homo sapiens, UniProt P48546); experiment: Functional cAMP formation (HTRF) in HEK-293 clonal cells expressing hGIPR, 0.1% bovine casein, without or with 1.0% human serum albumin; conditions: for EC50: geometric mean, read-out: hGIPR EC50, nM (SEM, n); for Emax: read-out: hGIPR Emax, % ± SEM
T1 construct: expressed in transfected cells
T1 sequence (P48546 22-466): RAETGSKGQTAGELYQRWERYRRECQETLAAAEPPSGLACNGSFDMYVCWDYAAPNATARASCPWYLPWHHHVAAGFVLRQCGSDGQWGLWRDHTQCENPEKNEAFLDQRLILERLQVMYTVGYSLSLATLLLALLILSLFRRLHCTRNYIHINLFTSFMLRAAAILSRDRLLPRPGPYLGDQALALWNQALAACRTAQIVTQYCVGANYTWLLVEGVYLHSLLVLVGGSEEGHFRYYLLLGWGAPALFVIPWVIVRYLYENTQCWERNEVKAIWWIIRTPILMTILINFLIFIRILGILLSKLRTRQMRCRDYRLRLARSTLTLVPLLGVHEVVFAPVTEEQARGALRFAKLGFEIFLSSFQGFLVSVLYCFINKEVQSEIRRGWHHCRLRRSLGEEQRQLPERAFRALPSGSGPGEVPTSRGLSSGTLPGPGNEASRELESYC
Method in brief: (§1)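 Readings of the HTRF 665/620 nm ratio, which falls as cAMP rises, were converted to nM cAMP using a standard curve after 30 min peptide exposure at 37° C.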

[2] = molecular target: hGLP-1R (Homo sapiens, UniProt P43220); experiment: Functional cAMP formation (HTRF) in HEK-293 clonal cells expressing hGLP-1R, 0.1% bovine casein, without or with 1.0% human serum albumin; set-up: expressed in transfected cells; conditions: for EC50: geometric mean, read-out: hGLP-1R EC50, nM (SEM, n); for Emax: HEK293, percent of maximal response to GLP-1(7-36)NH2, 0.1% bovine casein, arithmetic mean, read-out: hGLP-1R Emax, % ± SEM
Method in brief: as §1

[3] = molecular target: T2, hGCGR (Homo sapiens, UniProt P47871); experiment: Functional cAMP formation (HTRF) in HEK-293 clonal cells expressing hGCGR, 0.1% bovine casein, without or with 1.0% human serum albumin; conditions: geometric mean, read-out: hGCGR EC50, nM (SEM, n)
T2 construct: expressed in transfected cells
Method in brief: as §1

[4] = 0.1% bovine casein and 1.0% human serum albumin, 37° C.
[5] = HEK293, percent of maximal response to GIP(1-42)NH2, 37° C., 0.1% bovine casein, arithmetic mean
[6] = cAMP, incubated at 37° C., 0.1% bovine casein (no human serum albumin)

T2 sequence (P47871 26-477): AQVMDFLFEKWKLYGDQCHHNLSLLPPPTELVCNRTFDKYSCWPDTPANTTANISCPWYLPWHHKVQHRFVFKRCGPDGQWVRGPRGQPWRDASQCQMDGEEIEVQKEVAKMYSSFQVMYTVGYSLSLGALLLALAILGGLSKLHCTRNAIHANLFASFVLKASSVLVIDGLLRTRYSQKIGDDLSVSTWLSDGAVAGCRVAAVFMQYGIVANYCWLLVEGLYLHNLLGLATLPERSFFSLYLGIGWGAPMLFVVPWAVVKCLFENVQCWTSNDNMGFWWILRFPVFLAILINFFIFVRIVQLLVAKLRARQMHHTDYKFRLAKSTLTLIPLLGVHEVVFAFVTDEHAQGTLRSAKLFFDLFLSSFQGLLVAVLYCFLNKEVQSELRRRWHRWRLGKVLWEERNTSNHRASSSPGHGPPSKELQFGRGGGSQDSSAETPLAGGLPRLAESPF
Chain of hGLP-1R (P43220 24-463): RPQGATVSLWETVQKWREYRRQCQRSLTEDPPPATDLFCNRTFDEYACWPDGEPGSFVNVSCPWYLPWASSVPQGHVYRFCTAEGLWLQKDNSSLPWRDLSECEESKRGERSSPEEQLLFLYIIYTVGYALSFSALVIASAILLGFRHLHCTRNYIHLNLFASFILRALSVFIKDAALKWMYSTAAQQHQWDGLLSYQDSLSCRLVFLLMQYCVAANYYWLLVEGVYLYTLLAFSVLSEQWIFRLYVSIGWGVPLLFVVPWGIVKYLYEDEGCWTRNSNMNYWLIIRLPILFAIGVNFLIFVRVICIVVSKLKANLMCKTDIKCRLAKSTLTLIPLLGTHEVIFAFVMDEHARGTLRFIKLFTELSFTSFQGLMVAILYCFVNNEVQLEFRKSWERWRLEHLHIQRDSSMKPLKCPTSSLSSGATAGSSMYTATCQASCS

CCCCCCCCCCCC(=O)N[C@@H](CCC(=O)NCCOCCOCC(=O)NCCOCCOCC(=O)NCCCC[C@H](NC(=O)CNC(=O)CNC(=O)[C@H](CCC(=O)O)NC(=O)[C@@H](NC(=O)[C@H](CC(C)C)NC(=O)[C@](C)(Cc1ccc(O)cc1)NC(=O)[C@@H](CCC(=O)O)NC(=O)[C@@H](NC(=O)[C@](C)(Cc1ccccc1)NC(=O)[C@H](CCC(=O)O)NC(=O)C(C)(C)NC(=O)[C@H](CCC(N)=O)NC(=O)[C@H](C)NC(=O)[C@H](CCCCNC(=O)COCCOCCNC(=O)COCCOCCNC(=O)CC[C@H](NC(=O)CCCCCCCCCCC)C(=O)O)NC(=O)[C@H](CCCN)NC(=O)[C@H](CC(=O)O)NC(=O)[C@H](CC(C)C)NC(=O)[C@](C)(CC(C)C)NC(=O)[C@@H](NC(=O)[C@H](CO)NC(=O)[C@H](Cc1ccncc1)NC(=O)[C@H](CC(=O)O)NC(=O)[C@H](CO)NC(=O)[C@@H](NC(=O)[C@](C)(Cc1ccccc1)NC(=O)[C@@H](NC(=O)CNC(=O)[C@H](CCC(=O)O)NC(=O)C(C)(C)NC(=O)[C@@H](N)Cc1ccc(O)cc1)[C@@H](C)O)[C@@H](C)O)[C@@H](C)CC)[C@@H](C)CC)[C@@H](C)CC)C(=O)N[C@@H](CO)C(=O)N[C@@H](CO)C(=O)NCC(=O)N[C@@H](C)C(=O)N1CCC[C@H]1C(=O)N1CCC[C@H]1C(=O)N1CCC[C@H]1C(=O)N[C@@H](CO)C(N)=O)C(=O)O [Example 173]
EC50 [1, 4]: 1.24 nM | Emax ([1]; HEK293, 0.1% bovine casein and 1.0% human serum albumin, 37° C., percent of maximal response to GIP(1-42)NH2): 92.9 ± 6.91% | Emax [1, 5]: 87.8 ± 6.22% | EC50 [1, 6]: 0.0155 nM | EC50 [2, 4]: 29.7 nM | Emax ([2]; 37° C.): 89.9 ± 2.72% | EC50 [2, 6]: 0.343 nM | EC50 [3, 4]: > 9950 nM | EC50 [3, 6]: > 9950 nM

CCCCCCCCCCCC(=O)N[C@@H](CCC(=O)NCCOCCOCC(=O)NCCOCCOCC(=O)NCCCC[C@H](NC(=O)CNC(=O)CNC(=O)[C@H](CCC(=O)O)NC(=O)[C@@H](NC(=O)[C@H](CC(C)C)NC(=O)[C@](C)(Cc1ccccc1)NC(=O)[C@@H](CCC(=O)O)NC(=O)[C@@H](NC(=O)[C@](C)(Cc1ccccc1)NC(=O)[C@H](CCC(=O)O)NC(=O)C(C)(C)NC(=O)[C@H](CCC(N)=O)NC(=O)[C@H](C)NC(=O)[C@H](CCCCNC(=O)COCCOCCNC(=O)COCCOCCNC(=O)CC[C@H](NC(=O)CCCCCCCCCCC)C(=O)O)NC(=O)[C@H](CCCN)NC(=O)[C@H](CC(=O)O)NC(=O)[C@H](CC(C)C)NC(=O)[C@](C)(CC(C)C)NC(=O)[C@@H](NC(=O)[C@H](CO)NC(=O)[C@H](Cc1ccncc1)NC(=O)[C@H](CC(=O)O)NC(=O)[C@H](CO)NC(=O)[C@@H](NC(=O)[C@](C)(Cc1ccccc1)NC(=O)[C@@H](NC(=O)CNC(=O)[C@H](CCC(=O)O)NC(=O)C(C)(C)NC(=O)[C@@H](N)Cc1ccc(O)cc1)[C@@H](C)O)[C@@H](C)O)[C@@H](C)CC)[C@@H](C)CC)[C@@H](C)CC)C(=O)N[C@@H](CO)C(=O)N[C@@H](CO)C(=O)NCC(=O)N[C@@H](C)C(=O)N1CCC[C@H]1C(=O)N1CCC[C@H]1C(=O)N1CCC[C@H]1C(=O)N[C@@H](CO)C(N)=O)C(=O)O [Example 174]
Emax [1, 5]: 92.2% | Emax ([2]; 37° C.): 98.2% | EC50 [3, 6]: > 9950 nM

CCCCCCCCCCCC(=O)N[C@@H](CCC(=O)NCCOCCOCC(=O)NCCOCCOCC(=O)NCCCC[C@H](NC(=O)CNC(=O)CNC(=O)[C@H](CCC(=O)O)NC(=O)[C@@H](NC(=O)[C@H](CC(C)C)NC(=O)[C@](C)(Cc1ccc(O)cc1)NC(=O)[C@@H](CCC(=O)O)NC(=O)[C@@H](NC(=O)[C@H](Cc1ccccc1)NC(=O)[C@H](CCC(=O)O)NC(=O)C(C)(C)NC(=O)[C@H](CCC(N)=O)NC(=O)[C@H](C)NC(=O)[C@H](CCCCNC(=O)COCCOCCNC(=O)COCCOCCNC(=O)CC[C@H](NC(=O)CCCCCCCCCCC)C(=O)O)NC(=O)[C@H](CCCN)NC(=O)[C@H](CC(=O)O)NC(=O)[C@H](CC(C)C)NC(=O)[C@](C)(CC(C)C)NC(=O)[C@@H](NC(=O)C(C)(C)NC(=O)[C@@H](NC(=O)[C@H](CC(=O)O)NC(=O)[C@H](CO)NC(=O)[C@@H](NC(=O)[C@](C)(Cc1ccccc1F)NC(=O)[C@@H](NC(=O)CNC(=O)[C@H](CCC(=O)O)NC(=O)C(C)(C)NC(=O)[C@@H](N)Cc1ccc(O)cc1)[C@@H](C)O)[C@@H](C)O)C(C)C)[C@@H](C)CC)[C@@H](C)CC)[C@@H](C)CC)C(=O)N[C@@H](CO)C(=O)N[C@@H](CO)C(=O)NCC(=O)N[C@@H](C)C(=O)N1CCC[C@H]1C(=O)N1CCC[C@H]1C(=O)N1CCC[C@H]1C(=O)N[C@@H](CO)C(N)=O)C(=O)O [Example 175]
Emax [1, 5]: 100% | Emax ([2]; 37° C.): 91.1% | EC50 [2, 6]: 0.227 nM | EC50 [3, 6]: > 9950 nM

CCCCCCCCCCCC(=O)N[C@@H](CCC(=O)NCCOCCOCC(=O)NCCOCCOCC(=O)NCCCC[C@H](NC(=O)CNC(=O)CNC(=O)[C@H](CCC(=O)O)NC(=O)[C@@H](NC(=O)[C@H](CC(C)C)NC(=O)[C@](C)(Cc1ccc(O)cc1)NC(=O)[C@@H](CCC(=O)O)NC(=O)[C@@H](NC(=O)[C@H](Cc1ccccc1)NC(=O)[C@H](CCC(=O)O)NC(=O)C(C)(C)NC(=O)[C@H](CCC(N)=O)NC(=O)[C@H](C)NC(=O)[C@H](CCCCNC(=O)COCCOCCNC(=O)COCCOCCNC(=O)CC[C@H](NC(=O)CCCCCCCCCCC)C(=O)O)NC(=O)[C@H](CCCN)NC(=O)[C@H](CC(=O)O)NC(=O)[C@H](CC(C)C)NC(=O)[C@](C)(CC(C)C)NC(=O)[C@@H](NC(=O)C(C)(C)NC(=O)[C@@H](NC(=O)[C@H](CC(=O)O)NC(=O)[C@H](CO)NC(=O)[C@@H](NC(=O)[C@](C)(Cc1ccccc1)NC(=O)[C@@H](NC(=O)CNC(=O)[C@H](CCC(=O)O)NC(=O)C(C)(C)NC(=O)[C@@H](N)Cc1ccc(O)cc1)[C@@H](C)O)[C@@H](C)O)C(C)C)[C@@H](C)CC)[C@@H](C)CC)[C@@H](C)CC)C(=O)N[C@@H](CO)C(=O)N[C@@H](CO)C(=O)NCC(=O)N[C@@H](C)C(=O)N1CCC[C@H]1C(=O)N1CCC[C@H]1C(=O)N1CCC[C@H]1C(=O)N[C@@H](CO)C(N)=O)C(=O)O [Example 176]
Emax [1, 5]: 89.3% | EC50 [1, 6]: 0.0485 nM | Emax ([2]; 37° C.): 98.9% | EC50 [3, 6]: > 9950 nM

CC[C@H](C)[C@H](NC(=O)[C@H](CC(C)C)NC(=O)[C@](C)(Cc1ccc(O)cc1)NC(=O)[C@@H](CCC(=O)O)NC(=O)[C@@H](NC(=O)[C@H](Cc1ccccc1)NC(=O)[C@H](CCC(=O)O)NC(=O)C(C)(C)NC(=O)[C@H](CCC(N)=O)NC(=O)[C@H](C)NC(=O)[C@H](CCCCNC(=O)COCCOCCNC(=O)COCCOCCNC(=O)CC[C@H](NC(=O)CCCCCCCCCCCCC(=O)O)C(=O)O)NC(=O)[C@H](CCCN)NC(=O)[C@H](CC(=O)O)NC(=O)[C@H](CC(C)C)NC(=O)[C@](C)(CC(C)C)NC(=O)[C@@H](NC(=O)[C@H](CO)NC(=O)[C@@H](NC(=O)[C@H](CC(=O)O)NC(=O)[C@H](CO)NC(=O)[C@@H](NC(=O)[C@](C)(Cc1ccccc1)NC(=O)[C@@H](NC(=O)CNC(=O)[C@H](CCC(=O)O)NC(=O)C(C)(C)NC(=O)[C@@H](N)Cc1ccc(O)cc1)[C@@H](C)O)[C@@H](C)O)C(C)C)[C@@H](C)CC)[C@@H](C)CC)C(=O)N[C@@H](CCC(=O)O)C(=O)NCC(=O)NCC(=O)N[C@@H](CCCCNC(=O)COCCOCCNC(=O)COCCOCCNC(=O)CC[C@H](NC(=O)CCCCCCCCCCCCC(=O)O)C(=O)O)C(=O)N[C@@H](CO)C(=O)N[C@@H](CO)C(=O)NCC(=O)N[C@@H](C)C(=O)N1CCC[C@H]1C(=O)N1CCC[C@H]1C(=O)N1CCC[C@H]1C(=O)N[C@@H](CO)C(N)=O [Example 179] (H-Y[Aib]EGT[αMeF]TSDVSI[αMeL]LD[Orn]K([AEEA-AEEA-γGlu-C14 diacid])AQ[Aib]EFI[dE][αMeY]LIEGGK([AEEA-AEEA-γGlu-C14 diacid])SSGAPPPS-NH2)
Emax [1, 5]: 91% | Emax ([2]; 37° C.): 99% | EC50 [3, 6]: > 9950 nM
